Reference: patent US20210263039A1, “APPLICATION OF NIEMANN-PICK C1 PROTEIN IN DIAGNOSIS AND TREATMENT OF CANCER” (BEIJING PROTEOME RESEARCH CENTER, priority 2018, published 2021)
“And” between values parts separate entries of the source, which are not always exact repeats. Equal entries are not always repeated.

What was measured:
[1] = liver cancer patients; cited from earlier work
[2] = tested on: HepG2 liver cancer cell line; assay: CCK8 proliferation experiment, HepG2; format: cell-based, human; conditions: inhibitor 10 μM and 20 μM groups vs 1‰ DMSO, OD 450 nm at 0-72 h
Method: (§1) 1) On the first day, PLC/PRF/5 or HepG2 cells were seeded onto a 6-well plate.
(§2) 2) On the second day, when the cell confluence was about 40-50%, NPC1-sh or NPC1-control lentivirus was added at 200 μl/well for virus infection.
(§3) 3) On the third day, puromycin was added to infected PLC/PRF/5 or HepG2 cells to a final concentration of 2 μg/mL for selection.
(§4) 4) On the sixth day, part of the cells was collected according to the conventional method for CCK8 experiment, and part of the cells were lysed to obtain proteins and subjected to Western blotting. […]
(§5) 2) On the second day, after about 24 hours of culture, the cell growth was in the logarithmic growth phase and the culture medium was replaced with a new culture medium with different concentrations of SOAT1 inhibitor in a volume of 100 μL/well. […] 10% CCK8 (100 μL/well) was added to the wells of one 96-well plate, and OD value of 0 h was measured at 450 nm after 1 h, with cell-free wells as background.
(§6) 3) On the third day, 10% CCK8 was added to the wells of one 96-well plate and OD value of 24 h was measured at 450 nm after 1 h.
(§7) 4) On the fourth day, 10% CCK8 was added to the wells of one 96-well plate and OD value of 48 h was measured at 450 nm after 1 h.
(§8) 5) On the fifth day, 10% CCK8 was added to the wells of the last 96-well plate and OD value of 72 h was measured at 450 nm after 1 h. […]

[3] = tested on: PLC/PRF/5 liver cancer cell line; assay: CCK8 proliferation experiment, PLC/PRF/5; format: cell-based, human; conditions: inhibitor 10 μM and 20 μM groups vs 1‰ DMSO, OD 450 nm at 0-72 h
Method: as §1, §2, §3, §4, §5, §6, §7, §8

[4] = tested on: MHCC97H liver cancer cell line; assay: CCK8 proliferation experiment, MHCC97H; format: cell-based, human; conditions: inhibitor 10 μM and 20 μM groups vs 1‰ DMSO, OD 450 nm at 0-72 h
Method: (§9) 1) On the first day, after routine trypsinization and counting of cells in a 60 mm culture dish, the cells were seeded onto four 96-well plates at a density of 5000 cells/well.
(§10) 2) On the second day, after about 24 hours of culture, the cell growth was in the logarithmic growth phase and the culture medium was replaced with a new culture medium with different concentrations of SOAT1 inhibitor in a volume of 100 μL/well. 10 μM group, 20 μM group and control group (1‰ DMSO) were set, each group included three repeated wells. 10% CCK8 (100 μL/well) was added to the wells of one 96-well plate, and OD value of 0 h was measured at 450 nm after 1 h, with cell-free wells as background.
as §6, §7
(§11) 5) On the fifth day, 10% CCK8 was added to the wells of the last 96-well plate and OD value of 72 h was measured at 450 nm after 1 h.
(§12) 6) OD values at all time points were summarized and a growth curve was drawn.

[5] = tested on: Huh7 liver cancer cell line; assay: CCK8 proliferation experiment, Huh7; format: cell-based, human; conditions: inhibitor 10 μM and 20 μM groups vs 1‰ DMSO, OD 450 nm at 0-72 h
Method: as §9, §10, §6, §7, §11, §12

[6] = tested on: cervical cancer cell line Hela; assay: CCK8 proliferation experiment, Hela; format: cell-based, human
Method: as §9, §10, §6, §7, §11, §12

[7] = tested on: colon cancer cell line HCT116; assay: CCK8 proliferation experiment, HCT116; format: cell-based, human
Method: as §9, §10, §6, §7, §11, §12

[8] = tested on: non-small cell lung cancer cell line A549; assay: CCK8 proliferation experiment, A549; format: cell-based, human
Method: as §9, §10, §6, §7, §11, §12

[9] = tested on: esophageal cancer cell line ECA109; assay: CCK8 proliferation experiment, ECA109; format: cell-based, human
Method: as §9, §10, §6, §7, §11, §12

[10] = tested on: leukemia cell line Jurkat; assay: CCK8 proliferation experiment, Jurkat; format: cell-based, human
Method: as §9, §10, §6, §7, §11, §12

[11] = tested on: human hepatocarcinoma HepG2 liver orthotopic transplantation tumors; assay: Liver orthotopic transplantation tumors in nude mice bearing human hepatocarcinoma HepG2 cells; format: in vivo
Text: A total of 30 female Nu/Nu nude mice aged 5-7 weeks and weighing 18.0-21.0 g were purchased from Beijing Vital River Laboratory Animal Technology Co., Ltd., animal certificate was SCXK (JING)-2015-0001. The test animals were kept in sterile independent ventilation cages (IVC), with 5-6 mice per cage. The litter was corncob litter sterilized by ^60Co radiation, with a particle size of 4-6 mm. The animals were fed with sterilized feed specially formulated for mice and were given pure water to drink freely. The temperature in the animal laboratory was maintained at about 25° C., the relative humidity was maintained at 40-70%, and the daily light was 12 hours.
The cells in the logarithmic growth phase were digested with trypsin and collected, washed and resuspended with normal saline, so that the final cell concentration was about 1×10^7 cells/ml suspension. 0.2 ml of tumor cell suspension was injected under the skin of the right forelimb axillary in nude mice, and the tumor-bearing nude mice were established for passage and preservation.
When the subcutaneous tumor volume of the nude mice for preservation grew to 1000-1500 mm^3, tumors were removed and cut into tumor blocks of about 1.0 mm^3 for use under aseptic conditions. The nude mice to be operated were anesthetized and fixed on the operating table, and the abdominal skin was disinfected. An incision of about 1 cm was made in the upper right abdomen to expose the liver and the animal was covered with surgical drapes. The prepared tumor block was put into a special inoculation trocar, the tumor block was implanted into the liver with the trocar, and the bleeding wound was treated with a sterile cotton swab to stop bleeding. Then the liver after the operation was put back into the abdominal cavity of the mouse, and the abdominal muscles and skin of the incision were sutured sequentially with No. 4/0 surgical suture needle.
The experiment preset model control group and U18666A group.
Model animals were examined by B-ultrasound 3 weeks after operation, and grouped randomly according to B-ultrasound results. The test drug U18666A was administered intraperitoneally, once a day.
After the experiment, the animals were sacrificed by cervical dislocation. The liver was dissected, and the tumors visible to the naked eye were removed and weighed. All dissected tissues were preserved in a 4% formaldehyde solution for routine pathological examination.
Data were represented as x±SD; Tumor growth inhibition rate=(tumor weight in the control group−tumor weight in the administration group)/tumor weight in the control group×100%. All analyses were completed with GrghPad Prism software, and P<0.05 was considered to indicate a significant difference.

[12] = tested on: plasma membrane cholesterol; assay: Filipin III-based cholesterol staining of the plasma membrane; format: cell-based
Method: (§13) Reagents: Cholesterol Cell-Based Detection Assay Kit (No10009779) was purchased from Cayman. Human sIL6R ELISA kit (BMS214) was purchased from ebioscience. The relevant experiments were conducted according to the instructions.

IL6R = assay: sIL6R ELISA, shedding of IL6R from the cell membrane; format: cell-based
Method: as §13

STAT3 signaling pathway = STAT3 signaling pathway activation after IL6 stimulation (STAT3-Y705 antibody); format: cell-based
Text: The conventional western blotting method was adopted.
STAT3-Y705 (EP2147Y) antibody was purchased from Abcam.

liver cancer cells = assay: Migration of liver cancer cells; format: cell-based

Row | Compound | prolongation of the survival period of patients [1] | proliferation of liver cancer cells (CCK8 growth curve) [2] | proliferation of liver cancer cells (CCK8 growth curve) [3] | proliferation of liver cancer cells (CCK8 growth curve) [4] | proliferation of liver cancer cells (CCK8 growth curve) [5] | proliferation of common cancer cell lines [6] | proliferation of common cancer cell lines [7] | proliferation of common cancer cell lines [8] | proliferation of common cancer cell lines [9] | proliferation of common cancer cell lines [10] | Average weight (g) Begining ([11]; body weight at beginning, nude mice, x±SD) | Average weight (g) End ([11]; body weight at end, i.p., 20 mg/kg, once a day, 23 days, x±SD) | Tumor growth inhibition rate (%) ([11]; by tumor weight vs control group, i.p., 20 mg/kg, once a day, 23 days) | Tumor weight ([11]; group mean x±SD, i.p., 20 mg/kg, once a day, 23 days) | Tumor weight (g), individual tumors ([11]; single animals of the group, i.p., 20 mg/kg, once a day, 23 days, 20 mg/kg) | plasma membrane cholesterol [12] | shedding of IL6R receptor on the cell membrane (IL6R) | activation of STAT3 signaling pathway (STAT3 signaling pathway) | migration of liver cancer cells (liver cancer cells)
1 | CNC(=O)c1cc(Oc2ccc(NC(=O)Nc3ccc(Cl)c(C(F)(F)F)c3)cc2)ccn1 [Sorafenib] | 3 months | – | – | – | – | – | – | – | – | – | – | – | – | – | – | – | – | – | –
2 | CCN(CC)CCO[C@H]1CC[C@@]2(C)C(=CC[C@@H]3[C@@H]2CC[C@]2(C)C(=O)CC[C@@H]32)C1.Cl [U18666A] | – | significantly inhibit the proliferation | significantly inhibit the proliferation | significantly inhibit the proliferation | significantly inhibit the proliferation | significantly inhibited the proliferation | significantly inhibited the proliferation | significantly inhibited the proliferation | significantly inhibited the proliferation | significantly inhibited the proliferation | 23.74 ± 0.86 g | 23.34 ± 2.29 g | 62.1% | 0.3574 ± 0.3914 g | 0.0333 g and 0.0916 g and 0.0957 g and 0.0958 g and 0.1653 g and 0.3852 g and 0.5450 g and 0.5512 g and 1.2533 g | significantly down-regulated | increased shedding | blocked | significantly inhibit
